# From US10072008B2, “Spiro-isoquinoline-3,4′-piperidine compounds having activity against pain” (LABORATORIOS DEL DR. ESTEVE S.A., priority 2015, dated 2018)
# Target: human σ1 receptor (Homo sapiens (Human), UniProt Q99720)
# Test: Human σ1 receptor radioligand assay ([3H](+)-pentazocine, transfected HEK-293 membranes)
# Conditions: binding to the σ1 receptor expressed as Ki, [3H](+)-pentazocine 5 nM
# Procedure: Human σ1 Receptor Radioligand Assay
# To investigate binding properties of test compounds to human σ1 receptor, transfected HEK-293 membranes and [^3H](+)-pentazocine (Perkin Elmer, NET-1056), as the radioligand, were used. The assay was carried out with 7 μg of membrane suspension, 5 nM of [^3H](+)-pentazocine in either absence or presence of either buffer or 10 μM Haloperidol for total and non-specific binding, respectively. Binding buffer contained Tris-HCl 50 mM at pH 8. Plates were incubated at 37° C. for 120 minutes. After the incubation period, the reaction mix was then transferred to MultiScreen HTS, FC plates (Millipore), filtered and plates were washed 3 times with ice-cold 10 mM Tris-HCL (pH 7.4). Filters were dried and counted at approximately 40% efficiency in a MicroBeta scintillation counter (Perkin-Elmer) using EcoScint liquid scintillation cocktail
# human σ1 receptor, sequence (Q99720 whole entry): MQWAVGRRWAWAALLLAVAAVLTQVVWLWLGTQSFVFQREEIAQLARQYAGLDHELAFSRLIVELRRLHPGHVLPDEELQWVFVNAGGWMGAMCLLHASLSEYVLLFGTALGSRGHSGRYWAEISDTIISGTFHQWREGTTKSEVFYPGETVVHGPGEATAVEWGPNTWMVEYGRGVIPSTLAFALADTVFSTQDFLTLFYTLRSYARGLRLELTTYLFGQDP
row,Structure (SMILES),Ki
1,"O=C1NC2(CCN(CCc3ccccc3)CC2)Cc2ccccc21 [Example 1, 1′-(2-Phenylethyl)-2,4-dihydro-1H-spiro[isoquinoline-3,4′-piperidin]-1-one]",< 0.1 µM
2,"CN1Cc2ccccc2CC12CCN(CCN1CCOCC1)CC2 [Example 7, 4-(2-(2-Methyl-2,4-dihydro-1H-spiro[isoquinoline-3,4′-piperidine]-1′-yl)ethyl)morpholine]",< 0.5 µM

# The remaining lines, values ahead:
row,Ki,Structure (SMILES)
1,< 0.1 µM,"O=C1NC2(CCN(Cc3ccccc3)CC2)Cc2ccccc21 [Example 2, 1′-benzyl-2,4-dihydro-1H-spiro[isoquinoline-3,4′-piperidin]-1-one]"
2,< 0.1 µM,"c1ccc(CN2CCC3(CC2)Cc2ccccc2CN3)cc1 [Example 4, 1′-benzyl-2,4-dihydro-1H-spiro[isoquinoline-3,4′-piperidine]]"
3,< 0.1 µM,"CN1Cc2ccccc2CC12CCN(Cc1ccccc1)CC2 [Example 6, 1′-Benzyl-2-methyl-2,4-dihydro-1H-spiro[isoquinoline-3,4′-piperidine]]"
